Data published in patent US7105572B2, “Stable emulsion compositions” (Takeda Pharmaceutical Company Limited, priority 2000, dated 2006).

Key:
[1] = test system: nitric oxide concentration (NOx) in blood; test: Effect on increase of nitric oxide concentration (NOx) in blood of LPS-treated mice; type: in vivo, BALB/c mice; conditions: 30 mg/kg orally, 1 hour before LPS 10 mg/kg i.p.; serum 6 hours after LPS; vs control group
TNF-α = test: Effect on increase of cytokine concentration in blood of LPS-treated mice: TNF-α; type: in vivo, BALB/c mice; conditions: 30 mg/kg orally, 1 hour before LPS 10 mg/kg i.p.; serum 1 hour after LPS
Procedure: (§1) As a result of a defense mechanism against an infection and the like or an immune abnormality, various cytokines are produced in vivo. Accordingly, an experimental animal was used to examine the effect of a test compound on the increase cytokine concentration in blood.
(§2) Female BALB/c mice (6 weeks old) were purchased and acclimatized for 1 week and assigned to the groups in each of which 6 to 8 animals were included. In a treatment group, 30 mg/kg of a test compound suspended in a 0.5% aqueous methyl cellulose solution was given orally. In a control group, the vehicle was given similarly. After 1 hour, LPS (10 mg/kg) was given intraperitoneally to each animal in the treatment and control groups, and the blood was taken 1 hour after the LPS administration and examined for concentrations of TNF-α in the serum. IL-1α, IL-1β and IL-6 concentrations were determined using the serum from the blood taken 6 hours after the LPS administration. Each cytokine was determined using an assay kit manufactured by Amersham.

IL-1α = test: Effect on increase of cytokine concentration in blood of LPS-treated mice: IL-1α; type: in vivo, BALB/c mice; conditions: 30 mg/kg orally, 1 hour before LPS 10 mg/kg i.p.; serum 6 hours after LPS
Procedure: as §1, §2

IL-1β = test: Effect on increase of cytokine concentration in blood of LPS-treated mice: IL-1β; type: in vivo, BALB/c mice; conditions: 30 mg/kg orally, 1 hour before LPS 10 mg/kg i.p.; serum 6 hours after LPS
Procedure: as §1, §2

IL-6 = test: Effect on increase of cytokine concentration in blood of LPS-treated mice: IL-6; type: in vivo, BALB/c mice; conditions: 30 mg/kg orally, 1 hour before LPS 10 mg/kg i.p.; serum 6 hours after LPS
Procedure: as §1, §2

[2] = test system: NO production by RAW264.7 cell; test: NO production-inhibiting effect in RAW264.7 cells stimulated with LPS and interferon-gamma; type: cell-based, mouse; conditions: LPS 5 ng/ml + interferon-gamma 1 U/ml, nitrite ion in culture supernatant, compounds 1 and 3: minimum and maximum of 7 and 9 tests
Procedure: Mouse macrophage cell line RAW264.7 was used as an iNOS-inducible cell and a test compound was examined for its % inhibition of NO production. The test compound was dissolved at the concentration of 10 mM in N,N-dimethylformamide and diluted with an RPMI-1640 medium at the concentration of 0.1 mM. The concentration was further adjusted using the medium, so that a final concentration ranging from 10 μM to 10 nM could be obtained by a 10-fold serial dilution, and the test compound was added to a culture medium. […] at 5×10^5/ml with 10% inactivated fetal calf serum in an RPMI-1640 medium and inoculated to a 96-well plate at 1×10^5 cells/0.2 ml per well. After incubating at 37° C. under an atmosphere of 5% CO2/95% air overnight, the test compound adjusted as described above was added and then LPS and interferon-gamma were added at the final concentrations of 5 ng/ml and 1 U/ml, respectively. […] The nitrite ion concentration was determined by adding 25 μl of 20 μg/ml of 2,3-diaminonaphthalene (DAN) to 50 μl of the culture supernatant, followed by incubating at room temperature for 10 minutes, followed by adding 25 μl of 0.5 N NaOH, followed by determining a fluorescence at 450 nm (excitation wavelength: 365 nm). […]

With `CCOC(=O)C1=CCCCC1S(=O)(=O)Nc1ccc(Cl)cc1F` (centres unmarked) [Compound 1, ethyl 6-[N-(4-chloro-2-fluorophenyl)sulfamoyl]-1-cyclohexene-1-carboxylate] the “NOx inhibition (%) in blood” value [1] was 76%, the “cytokine inhibition (%) in blood TNF-α” value (TNF-α) was 98% and the “cytokine inhibition (%) in blood IL-1α” value (IL-1α) was 97%. For the same compound, the “cytokine inhibition (%) in blood IL-1β” value (IL-1β) was 73% and the “cytokine inhibition (%) in blood IL-6” value (IL-6) was 89%.
`CCOC(=O)C1=CCCCC1S(=O)(=O)Nc1cccc(F)c1` (centres unmarked) [Compound 11, ethyl 6-[N-(3-fluorophenyl)sulfamoyl]-1-cyclohexene-1-carboxylate] showed an IC50 ([2]; Mus musculus) of 0.31 µM.
`CCOC(=O)C1=CCCCC1S(=O)(=O)Nc1ccc(F)cc1F` (stereo not drawn) [Compound 20, d-ethyl 6-[N-(2,4-difluorophenyl)sulfamoyl]-1-cyclohexene-1-carboxylate] showed an IC50 [2] of 0.005 µM.
In the case of `CCOC(=O)C1=CCCCC1S(=O)(=O)Nc1ccc(F)cc1F` (centres unmarked) [Compound 3, ethyl 6-[N-(2,4-difluorophenyl)sulfamoyl]-1-cyclohexene-1-carboxylate], the “NOx inhibition (%) in blood” value [1] is reported as 90%.
